Patent US12077503B2, “Substituted cyclic amides and their use as herbicides” (FMC CORPORATION, priority 2015, dated 2024)

Legend:
Assay type in all cases: in vivo
corn (Zea mays) [1] = assay: Test G Pre-Emergence Protocol; details: Zea mays, pre-emergence, 312 h, evaluated after 13 days; for plant injury at 15.625 g/ha: 15.625 g ai/ha; for plant injury at 15.625 g/ha / plant injury at 250 g/ha: read-out: Corn damage rating (100=total damage to plant; 0=no damage to plant); for plant injury at 62.5 g/ha: 62.5 g ai/ha, 100=total damage to plant, 0=no damage to plant, read-out: plant damage rating, Corn; for plant injury at 250 g/ha: 250 g ai/ha
How it was run: (§1)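 Visual injury (0–100) at day 13 after a single pre-emergence spray. Rates: 15.625, 62.5, 250 g/ha in acetone–water 50:50 with 0.5% Tween 20. Growth conditions: 24/16° C, 14 h light, 65% humidity.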

[2] = test system: giant foxtail (Setaria faberi); assay: Test G Pre-Emergence Protocol; details: Setaria faberi, pre-emergence, 312 h, evaluated after 13 days; for pest or weed control at 15.625 g/ha: 15.625 g ai/ha; for pest or weed control at 15.625 g/ha / pest or weed control at 250 g/ha: read-out: Foxtail, Giant damage rating (100=total damage to plant; 0=no damage to plant); for pest or weed control at 62.5 g/ha: 62.5 g ai/ha, 100=total damage to plant, 0=no damage to plant, read-out: plant damage rating, Foxtail, Giant; for pest or weed control at 250 g/ha: 250 g ai/ha
How it was run: as §1

[3] = test system: velvetleaf (Abutilon theophrasti); assay: Test G Pre-Emergence Protocol; details: Abutilon theophrasti, pre-emergence, 312 h, evaluated after 13 days; for pest or weed control at 15.625 g/ha: 15.625 g ai/ha; for pest or weed control at 15.625 g/ha / pest or weed control at 250 g/ha: read-out: Velvetleaf damage rating (100=total damage to plant; 0=no damage to plant); for pest or weed control at 62.5 g/ha: 62.5 g ai/ha, 100=total damage to plant, 0=no damage to plant, read-out: plant damage rating, Velvetleaf; for pest or weed control at 250 g/ha: 250 g ai/ha
How it was run: as §1

[4] = test system: ivy-leaved morning glory (Ipomoea hederacea); assay: Test G Pre-Emergence Protocol; details: Ipomoea, pre-emergence, 312 h, evaluated after 13 days; for pest or weed control at 15.625 g/ha: 15.625 g ai/ha, read-out: Morning-glory, Ivy-leaved damage rating (100=total damage to plant; 0=no damage to plant); for pest or weed control at 62.5 g/ha: 62.5 g ai/ha, 100=total damage to plant, 0=no damage to plant, read-out: plant damage rating, Morningglory, Ivy-leaved; for pest or weed control at 250 g/ha: 250 g ai/ha, read-out: Morningglory, Ivy-leaved damage rating (100=total damage to plant; 0=no damage to plant)
How it was run: as §1

[5] = test system: redroot pigweed (Amaranthus retroflexus); assay: Test G Pre-Emergence Protocol; details: Amaranthus retroflexus, pre-emergence, 312 h, evaluated after 13 days; for pest or weed control at 15.625 g/ha: 15.625 g ai/ha; for pest or weed control at 15.625 g/ha / pest or weed control at 250 g/ha: read-out: Pigweed, Redroot damage rating (100=total damage to plant; 0=no damage to plant); for pest or weed control at 62.5 g/ha: 62.5 g ai/ha, 100=total damage to plant, 0=no damage to plant, read-out: plant damage rating, Pigweed, Redroot; for pest or weed control at 250 g/ha: 250 g ai/ha
How it was run: as §1

[6] = test system: barnyardgrass (Echinochloa crus-galli); assay: Test G Pre-Emergence Protocol; details: Echinochloa crus-galli, pre-emergence, 312 h, evaluated after 13 days; for pest or weed control at 15.625 g/ha: 15.625 g ai/ha, read-out: Barnyard grass damage rating (100=total damage to plant; 0=no damage to plant); for pest or weed control at 62.5 g/ha: 62.5 g ai/ha, 100=total damage to plant, 0=no damage to plant, read-out: plant damage rating, Barnyardgrass; for pest or weed control at 250 g/ha: 250 g ai/ha, read-out: Barnyardgrass damage rating (100=total damage to plant; 0=no damage to plant)
How it was run: as §1

corn (Zea mays) [7] = assay: Test G Post-Emergence Protocol; details: Zea mays, post-emergence, 312 h; for plant injury at 15.625 g/ha: 15.625 g ai/ha, evaluated after 13 days (100=total damage to plant; 0=no damage to plant), read-out: Corn damage rating; for plant injury at 62.5 g/ha: 62.5 g ai/ha, read-out: Corn damage rating (100=total damage to plant; 0=no damage to plant); for plant injury at 62.5 g/ha / plant injury at 250 g/ha: evaluated after 13 days; for plant injury at 250 g/ha: 250 g ai/ha, read-out: damage to plant, Corn (100=total damage to plant; 0=no damage to plant)
How it was run: (§2)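 Foliar application was made 8 days after sowing, using an aqueous spray of the active in acetone/water (50:50) with 0.5% Tween 20, at doses of 15.625, 62.5 or 250 g/ha. Injury was assessed 13 days later, where 100 meant the plant was fully damaged.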

[8] = test system: giant foxtail (Setaria faberi); assay: Test G Post-Emergence Protocol; details: Setaria faberi, post-emergence, 312 h; for pest or weed control at 15.625 g/ha: 15.625 g ai/ha, evaluated after 13 days (100=total damage to plant; 0=no damage to plant), read-out: Foxtail, Giant damage rating; for pest or weed control at 62.5 g/ha: 62.5 g ai/ha, read-out: Foxtail, Giant damage rating (100=total damage to plant; 0=no damage to plant); for pest or weed control at 62.5 g/ha / pest or weed control at 250 g/ha: evaluated after 13 days; for pest or weed control at 250 g/ha: 250 g ai/ha, read-out: damage to plant, Foxtail, Giant (100=total damage to plant; 0=no damage to plant)
How it was run: as §2

[9] = test system: velvetleaf (Abutilon theophrasti); assay: Test G Post-Emergence Protocol; details: Abutilon theophrasti, post-emergence, 312 h; for pest or weed control at 15.625 g/ha: 15.625 g ai/ha, evaluated after 13 days (100=total damage to plant; 0=no damage to plant), read-out: Velvetleaf damage rating; for pest or weed control at 62.5 g/ha: 62.5 g ai/ha, read-out: Velvetleaf damage rating (100=total damage to plant; 0=no damage to plant); for pest or weed control at 62.5 g/ha / pest or weed control at 250 g/ha: evaluated after 13 days; for pest or weed control at 250 g/ha: 250 g ai/ha, read-out: damage to plant, Velvetleaf (100=total damage to plant; 0=no damage to plant)
How it was run: as §2

[10] = test system: ivy-leaved morning glory (Ipomoea hederacea); assay: Test G Post-Emergence Protocol; details: Ipomoea, post-emergence, 312 h; for pest or weed control at 15.625 g/ha: 15.625 g ai/ha, evaluated after 13 days (100=total damage to plant; 0=no damage to plant), read-out: Morningglory, Ivy-leaved damage rating; for pest or weed control at 62.5 g/ha: 62.5 g ai/ha, read-out: Morningglory, Ivy-leaved damage rating (100=total damage to plant; 0=no damage to plant); for pest or weed control at 62.5 g/ha / pest or weed control at 250 g/ha: evaluated after 13 days; for pest or weed control at 250 g/ha: 250 g ai/ha, read-out: damage to plant, Morningglory, Ivy-leaved (100=total damage to plant; 0=no damage to plant)
How it was run: as §2

[11] = test system: redroot pigweed (Amaranthus retroflexus); assay: Test G Post-Emergence Protocol; details: Amaranthus retroflexus, post-emergence, 312 h; for pest or weed control at 15.625 g/ha: 15.625 g ai/ha, evaluated after 13 days (100=total damage to plant; 0=no damage to plant), read-out: Pigweed, Redroot damage rating; for pest or weed control at 62.5 g/ha: 62.5 g ai/ha, read-out: Pigweed, Redroot damage rating (100=total damage to plant; 0=no damage to plant); for pest or weed control at 62.5 g/ha / pest or weed control at 250 g/ha: evaluated after 13 days; for pest or weed control at 250 g/ha: 250 g ai/ha, read-out: damage to plant, Pigweed, Redroot (100=total damage to plant; 0=no damage to plant)
How it was run: as §2

[12] = test system: barnyardgrass (Echinochloa crus-galli); assay: Test G Post-Emergence Protocol; details: Echinochloa crus-galli, post-emergence, 312 h; for pest or weed control at 15.625 g/ha: 15.625 g ai/ha, evaluated after 13 days (100=total damage to plant; 0=no damage to plant), read-out: Barnyardgrass damage rating; for pest or weed control at 62.5 g/ha: 62.5 g ai/ha, read-out: Barnyardgrass damage rating (100=total damage to plant; 0=no damage to plant); for pest or weed control at 62.5 g/ha / pest or weed control at 250 g/ha: evaluated after 13 days; for pest or weed control at 250 g/ha: 250 g ai/ha, read-out: damage to plant, Barnyardgrass (100=total damage to plant; 0=no damage to plant)
How it was run: as §2

Row | Structure (SMILES) | plant injury at 15.625 g/ha (corn (Zea mays) [1]) [%] | plant injury at 62.5 g/ha (corn (Zea mays) [1]) [%] | plant injury at 250 g/ha (corn (Zea mays) [1]) [%] | pest or weed control at 15.625 g/ha [2] [%] | pest or weed control at 62.5 g/ha [2] [%] | pest or weed control at 250 g/ha [2] [%] | pest or weed control at 15.625 g/ha [3] [%] | pest or weed control at 62.5 g/ha [3] [%] | pest or weed control at 250 g/ha [3] [%] | pest or weed control at 15.625 g/ha [4] [%] | pest or weed control at 62.5 g/ha [4] [%] | pest or weed control at 250 g/ha [4] [%] | pest or weed control at 15.625 g/ha [5] [%] | pest or weed control at 62.5 g/ha [5] [%] | pest or weed control at 250 g/ha [5] [%] | pest or weed control at 15.625 g/ha [6] [%] | pest or weed control at 62.5 g/ha [6] [%] | pest or weed control at 250 g/ha [6] [%] | plant injury at 15.625 g/ha (corn (Zea mays) [7]) [%] | plant injury at 62.5 g/ha (corn (Zea mays) [7]) [%] | other results
1 | CN1C[C@@H](c2ccc(C(F)(F)F)cc2)[C@H](C(=O)Nc2csc(C(F)(F)F)n2)C1=O (racemic) [Compound 1587] | 0 | 10 | 0 | 0 | 0 | 0 | 0 | 0 | 0 | 0 | 0 | 0 | 0 | 0 | 10 | 0 | 0 | 0 | 0 | 0 | plant injury at 250 g/ha (corn (Zea mays) [7]): 0%; pest or weed control at 15.625 g/ha [8]: 0%; pest or weed control at 62.5 g/ha [8]: 20%; pest or weed control at 250 g/ha [8]: 60%; pest or weed control at 15.625 g/ha [9]: 0%; pest or weed control at 62.5 g/ha [9]: 0%; pest or weed control at 250 g/ha [9]: 0%; pest or weed control at 15.625 g/ha [10]: 0%; pest or weed control at 62.5 g/ha [10]: 0%; pest or weed control at 250 g/ha [10]: 40%; pest or weed control at 15.625 g/ha [11]: 0%; pest or weed control at 62.5 g/ha [11]: 10%; pest or weed control at 250 g/ha [11]: 70%; pest or weed control at 15.625 g/ha [12]: 0%; pest or weed control at 62.5 g/ha [12]: 20%; pest or weed control at 250 g/ha [12]: 40%
2 | CCc1nc(NC(=O)[C@@H]2C(=O)N(C)C[C@H]2c2ccc(C(F)(F)F)cc2)n[nH]1 (racemic) [Compound 1610] | 0 | 0 | 0 | 0 | 0 | 0 | 0 | 0 | 0 | 0 | 0 | 0 | 0 | 0 | 0 | 0 | 0 | 0 | 0 | 0 | plant injury at 250 g/ha (corn (Zea mays) [7]): 0%; pest or weed control at 15.625 g/ha [8]: 0%; pest or weed control at 62.5 g/ha [8]: 0%; pest or weed control at 250 g/ha [8]: 0%; pest or weed control at 15.625 g/ha [9]: 0%; pest or weed control at 62.5 g/ha [9]: 0%; pest or weed control at 250 g/ha [9]: 0%; pest or weed control at 15.625 g/ha [10]: 0%; pest or weed control at 62.5 g/ha [10]: 0%; pest or weed control at 250 g/ha [10]: 0%; pest or weed control at 15.625 g/ha [11]: 0%; pest or weed control at 62.5 g/ha [11]: 0%; pest or weed control at 250 g/ha [11]: 0%; pest or weed control at 15.625 g/ha [12]: 0%; pest or weed control at 62.5 g/ha [12]: 0%; pest or weed control at 250 g/ha [12]: 0%
